The supplement of paper PMC10307832

Columns and labels:
Experiment in all cases: relative viability (nuclei count vs DMSO), 5 days (fraction); higher = more cells survive
HARA = test system: HARA
In short: (§1)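 Lung cancer cell lines were pin-tool dosed in 1536-well plates on the day after seeding, with either a lone drug or a fixed anchor-drug dose plus five library-drug doses (not always all listed) in √10 steps. Nuclei were counted on 4× images after 5 days. Relative viability is the ratio of treated-well to vehicle-well nuclei counts, with each value a median of duplicate plates.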

201T = test system: 201T
In short: as §1

BEN = test system: BEN
In short: as §1

NCI-H1666 = test system: NCI-H1666
In short: as §1

LOU-NH91 = test system: LOU-NH91
In short: as §1

NCI-H1993 = test system: NCI-H1993
In short: as §1

NCI-H596 = test system: NCI-H596
In short: as §1

NCI-H727 = test system: NCI-H727
In short: as §1

NCI-H2126 = test system: NCI-H2126
In short: as §1

NCI-H2023 = test system: NCI-H2023
In short: as §1

NCI-H2087 = test system: NCI-H2087
In short: as §1

NCI-H441 = test system: NCI-H441
In short: as §1

NCI-H2009 = test system: NCI-H2009
In short: as §1

NCI-H23 = test system: NCI-H23
In short: as §1

NCI-H1395 = test system: NCI-H1395
In short: as §1

HCC-44 = test system: HCC-44
In short: as §1

NCI-H838 = test system: NCI-H838
In short: as §1

NCI-H3122 = test system: NCI-H3122
In short: as §1

LCLC-103H = test system: LCLC-103H
In short: as §1

NCI-H2347 = test system: NCI-H2347
In short: as §1

NCI-H647 = test system: NCI-H647
In short: as §1

NCI-H650 = test system: NCI-H650
In short: as §1

EMC-BAC-2 = test system: EMC-BAC-2
In short: as §1

Q: Which results are given for `NC(=O)Nc1cc(-c2cccc(F)c2)sc1C(=O)N[C@H]1CCCNC1` [AZD7762] + COc1cccc2cc(-c3nc([C@H]4CC[C@H](C(=O)O)CC4)n4ncnc(N)c34)[nH]c12 [OSI-027] (partner 0.5 µM)?
A: relative viability (HARA; first compound 0.01 µM): 0.506; relative viability (HARA; first compound 0.03162 µM): 0.609; relative viability (HARA; first compound 0.1 µM): 0.564; relative viability (HARA; first compound 0.3162 µM): 0.59; relative viability (HARA; first compound 1 µM): 0.16; relative viability (201T; first compound 0.01 µM): 0.795; relative viability (201T; first compound 0.03162 µM): 0.779; relative viability (201T; first compound 0.1 µM): 0.703; relative viability (201T; first compound 0.3162 µM): 0.423; relative viability (201T; first compound 1 µM): 0.254; relative viability (BEN; first compound 0.01 µM): 0.284; relative viability (BEN; first compound 0.03162 µM): 0.297; relative viability (BEN; first compound 0.1 µM): 0.305; relative viability (BEN; first compound 0.3162 µM): 0.287; relative viability (BEN; first compound 1 µM): 0.246; relative viability (NCI-H1666; first compound 0.01 µM): 0.981; relative viability (NCI-H1666; first compound 0.03162 µM): 0.921; relative viability (NCI-H1666; first compound 0.1 µM): 1.03; relative viability (NCI-H1666; first compound 0.3162 µM): 0.858; relative viability (NCI-H1666; first compound 1 µM): 0.771; relative viability (LOU-NH91; first compound 0.01 µM): 0.735; relative viability (LOU-NH91; first compound 0.03162 µM): 0.749; relative viability (LOU-NH91; first compound 0.1 µM): 0.692; relative viability (LOU-NH91; first compound 0.3162 µM): 0.638; relative viability (LOU-NH91; first compound 1 µM): 0.554; relative viability (NCI-H1993; first compound 0.01 µM): 0.577; relative viability (NCI-H1993; first compound 0.03162 µM): 0.591; relative viability (NCI-H1993; first compound 0.1 µM): 0.58; relative viability (NCI-H1993; first compound 0.3162 µM): 0.532; relative viability (NCI-H1993; first compound 1 µM): 0.525; relative viability (NCI-H596; first compound 0.01 µM): 0.702; relative viability (NCI-H596; first compound 0.03162 µM): 0.711; relative viability (NCI-H596; first compound 0.1 µM): 0.849; relative viability (NCI-H596; first compound 0.3162 µM): 0.673; relative viability (NCI-H596; first compound 1 µM): 0.686; relative viability (NCI-H727; first compound 0.01 µM): 0.649; relative viability (NCI-H727; first compound 0.03162 µM): 0.791; relative viability (NCI-H727; first compound 0.1 µM): 0.425; relative viability (NCI-H727; first compound 0.3162 µM): 0.52; relative viability (NCI-H727; first compound 1 µM): 0.358; relative viability (NCI-H2126; first compound 0.01 µM): 0.735; relative viability (NCI-H2126; first compound 0.03162 µM): 0.772; relative viability (NCI-H2126; first compound 0.1 µM): 0.783; relative viability (NCI-H2126; first compound 0.3162 µM): 0.871; relative viability (NCI-H2126; first compound 1 µM): 0.807; relative viability (NCI-H2023; first compound 0.01 µM): 0.405; relative viability (NCI-H2023; first compound 0.03162 µM): 0.331; relative viability (NCI-H2023; first compound 0.1 µM): 0.216; relative viability (NCI-H2023; first compound 0.3162 µM): 0.116; relative viability (NCI-H2023; first compound 1 µM): 0.105; relative viability (NCI-H2087; first compound 0.01 µM): 0.474; relative viability (NCI-H2087; first compound 0.03162 µM): 0.653; relative viability (NCI-H2087; first compound 0.1 µM): 0.681; relative viability (NCI-H2087; first compound 0.3162 µM): 0.883; relative viability (NCI-H2087; first compound 1 µM): 0.779; relative viability (NCI-H441; first compound 0.01 µM): 0.765; relative viability (NCI-H441; first compound 0.03162 µM): 0.819; relative viability (NCI-H441; first compound 0.1 µM): 0.944; relative viability (NCI-H441; first compound 0.3162 µM): 0.799; relative viability (NCI-H441; first compound 1 µM): 0.59; relative viability (NCI-H2009; first compound 0.01 µM): 0.664; relative viability (NCI-H2009; first compound 0.03162 µM): 0.736; relative viability (NCI-H2009; first compound 0.1 µM): 0.73; relative viability (NCI-H2009; first compound 0.3162 µM): 0.601; relative viability (NCI-H2009; first compound 1 µM): 0.459; relative viability (NCI-H23; first compound 0.01 µM): 0.556; relative viability (NCI-H23; first compound 0.03162 µM): 0.567; relative viability (NCI-H23; first compound 0.1 µM): 0.652; relative viability (NCI-H23; first compound 0.3162 µM): 0.566; relative viability (NCI-H23; first compound 1 µM): 0.288; relative viability (NCI-H1395; first compound 0.01 µM): 0.727; relative viability (NCI-H1395; first compound 0.03162 µM): 0.74; relative viability (NCI-H1395; first compound 0.1 µM): 0.708; relative viability (NCI-H1395; first compound 0.3162 µM): 0.458; relative viability (NCI-H1395; first compound 1 µM): 0.363; relative viability (HCC-44; first compound 0.01 µM): 0.718; relative viability (HCC-44; first compound 0.03162 µM): 0.579; relative viability (HCC-44; first compound 0.1 µM): 0.712; relative viability (HCC-44; first compound 0.3162 µM): 0.65; relative viability (HCC-44; first compound 1 µM): 0.491; relative viability (NCI-H838; first compound 0.01 µM): 0.429; relative viability (NCI-H838; first compound 0.03162 µM): 0.374; relative viability (NCI-H838; first compound 0.1 µM): 0.415; relative viability (NCI-H838; first compound 0.3162 µM): 0.413; relative viability (NCI-H838; first compound 1 µM): 0.297; relative viability (NCI-H3122; first compound 0.01 µM): 1.03; relative viability (NCI-H3122; first compound 0.03162 µM): 1.1; relative viability (NCI-H3122; first compound 0.1 µM): 0.995; relative viability (NCI-H3122; first compound 0.3162 µM): 0.473; relative viability (NCI-H3122; first compound 1 µM): 0.259; relative viability (LCLC-103H; first compound 0.01 µM): 0.451; relative viability (LCLC-103H; first compound 0.03162 µM): 0.471; relative viability (LCLC-103H; first compound 0.1 µM): 0.427; relative viability (LCLC-103H; first compound 0.3162 µM): 0.392; relative viability (LCLC-103H; first compound 1 µM): 0.341; relative viability (NCI-H2347; first compound 0.01 µM): 0.433; relative viability (NCI-H2347; first compound 0.03162 µM): 0.529; relative viability (NCI-H2347; first compound 0.1 µM): 0.412; relative viability (NCI-H2347; first compound 0.3162 µM): 0.395; relative viability (NCI-H2347; first compound 1 µM): 0.356; relative viability (NCI-H647; first compound 0.01 µM): 0.656; relative viability (NCI-H647; first compound 0.03162 µM): 0.55; relative viability (NCI-H647; first compound 0.1 µM): 0.714; relative viability (NCI-H647; first compound 0.3162 µM): 0.6; relative viability (NCI-H647; first compound 1 µM): 0.172; relative viability (NCI-H650; first compound 0.01 µM): 0.549; relative viability (NCI-H650; first compound 0.03162 µM): 0.542; relative viability (NCI-H650; first compound 0.1 µM): 0.537; relative viability (NCI-H650; first compound 0.3162 µM): 0.509; relative viability (NCI-H650; first compound 1 µM): 0.614; relative viability (EMC-BAC-2; first compound 0.01 µM): 0.349; relative viability (EMC-BAC-2; first compound 0.03162 µM): 0.435; relative viability (EMC-BAC-2; first compound 0.1 µM): 0.465; relative viability (EMC-BAC-2; first compound 0.3162 µM): 0.345; relative viability (EMC-BAC-2; first compound 1 µM): 0.405
